Measured values as given in publication PMC10945555, “Improving Activity of New Arylurea Agents against Multidrug-Resistant and Biofilm-Producing Staphylococcus epidermidis” (ACS Medicinal Chemistry Letters, 2024).
≈ marks a conversion by molar mass, not a printed value. Like-named read-outs stand apart in the source and are kept apart here.

Experiments:
[1] = system: Staphylococcus aureus ATCC BAA-976; assay: MIC, broth microdilution, MDR/BPSA reference strain; format: cell-based; settings: ATCCBAA976; Staphylococcus aureus ATCC BAA-976; read-out: MIC MDR/BPSA
In short: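 Compounds tested as free bases dissolved in DMSO (1 mg/mL stock); determinations done twice; linezolid as positive control.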

[2] = system: clinical MDR Staphylococcus epidermidis isolates; assay: MIC, broth microdilution, 81 clinical MDR strains; format: cell-based; settings: Staphylococcus epidermidis
Method: 2 Biological assay protocols
Microbiological tests were carried out under aseptic conditions in a laminar chamber of the 2nd […]
(BioTectum 1.2, Alchem Poland). The assessment of antimicrobial activity was carried out for final compounds in the form of free bases, soluble in DMSO (Merck, Germany), at the initial […]
concentration of 1 mg/mL. […]
were provided by Cayman Chemical, USA. […]
The antibacterial activity of selected compounds was also tested on a panel of 81 unrelated, multidrug -resistant clinical strains of Staphylococcus epidermidis from the own collection of the Department of Pharmaceutical Microbiology of the Jagiellonian University Medical College.
2.2 Effect of evaluated compounds on planktonic cells
The susceptibility of three reference bacterial strains (Staphylococcus epidermidis ATCC […]
Table S1) and 81 clinical MDR S. epidermidis (Table S2) to the tested compounds was assessed by determining the MIC value (Minimal Inhibitory Concentration) by microdilution in a liquid medium in 96-well flat-bottom cell culture plates (Nest Biotechnology Scientific, USA). The antibacterial properties of the compo unds were tested in the concentration range from 50 µg/mL to 0.1 µg/mL by making a series of double dilutions of the compound in liquid Mueller -Hinton II Broth Cation Adjusted (MHB II, BBL TM, USA) according to the European Committee on […]
Antimicrobial Susceptibility Testing guidelines (EUCAST).2,3 The determinations were performed twice. The MIC50 and MIC90 values were determined for each of the tested

`CC(=O)NC[C@H]1CN(c2ccc(N3CCOCC3)c(F)c2)C(=O)O1` [linezolid, reference compound] gave an MIC [1] of 1.6 µg/mL (≈ 4.74 µM), an MIC ([2]; clinical strain 1 (Table S2), read-out: MIC) of 1.6 µg/mL (≈ 4.74 µM) and an MIC ([2]; clinical strain 2 (Table S2), read-out: MIC) of 1.6 µg/mL (≈ 4.74 µM). It also gave an MIC ([2]; clinical strain 3 (Table S2), read-out: MIC) of 1.6 µg/mL (≈ 4.74 µM), an MIC ([2]; clinical strain 4 (Table S2), read-out: MIC) of 1.6 µg/mL (≈ 4.74 µM) and an MIC ([2]; clinical strain 5 (Table S2), read-out: MIC) of 1.6 µg/mL (≈ 4.74 µM). It also gave an MIC ([2]; clinical strain 6 (Table S2), read-out: MIC) of 1.6 µg/mL (≈ 4.74 µM), an MIC ([2]; clinical strain 7 (Table S2), read-out: MIC) of 1.6 µg/mL (≈ 4.74 µM) and an MIC ([2]; clinical strain 8 (Table S2), read-out: MIC) of 1.6 µg/mL (≈ 4.74 µM). The MIC ([2]; clinical strain 9 (Table S2), read-out: MIC) was 1.6 µg/mL (≈ 4.74 µM), the MIC ([2]; clinical strain 10 (Table S2), read-out: MIC) was 1.6 µg/mL (≈ 4.74 µM) and the MIC ([2]; clinical strain 11 (Table S2), read-out: MIC) was 1.6 µg/mL (≈ 4.74 µM). It also gave an MIC ([2]; clinical strain 12 (Table S2), read-out: MIC) of 0.8 µg/mL (≈ 2.37 µM), an MIC ([2]; clinical strain 13 (Table S2), read-out: MIC) of 1.6 µg/mL (≈ 4.74 µM) and an MIC ([2]; clinical strain 14 (Table S2), read-out: MIC) of 1.6 µg/mL (≈ 4.74 µM). It also gave an MIC ([2]; clinical strain 15 (Table S2), read-out: MIC) of 1.6 µg/mL (≈ 4.74 µM), an MIC ([2]; clinical strain 16 (Table S2), read-out: MIC) of 1.6 µg/mL (≈ 4.74 µM) and an MIC ([2]; clinical strain 17 (Table S2), read-out: MIC) of 0.8 µg/mL (≈ 2.37 µM). For the same compound, the MIC ([2]; clinical strain 18 (Table S2), read-out: MIC) was 0.8 µg/mL (≈ 2.37 µM), the MIC ([2]; clinical strain 19 (Table S2), read-out: MIC) was 1.6 µg/mL (≈ 4.74 µM) and the MIC ([2]; clinical strain 20 (Table S2), read-out: MIC) was 1.6 µg/mL (≈ 4.74 µM). For the same compound, the MIC ([2]; clinical strain 21 (Table S2), read-out: MIC) was 1.6 µg/mL (≈ 4.74 µM), the MIC ([2]; clinical strain 22 (Table S2), read-out: MIC) was 1.6 µg/mL (≈ 4.74 µM) and the MIC ([2]; clinical strain 23 (Table S2), read-out: MIC) was 1.6 µg/mL (≈ 4.74 µM). For the same compound, the MIC ([2]; clinical strain 24 (Table S2), read-out: MIC) was 1.6 µg/mL (≈ 4.74 µM), the MIC ([2]; clinical strain 25 (Table S2), read-out: MIC) was 1.6 µg/mL (≈ 4.74 µM) and the MIC ([2]; clinical strain 26 (Table S2), read-out: MIC) was 0.8 µg/mL (≈ 2.37 µM). It also gave an MIC ([2]; clinical strain 27 (Table S2), read-out: MIC) of 1.6 µg/mL (≈ 4.74 µM), an MIC ([2]; clinical strain 28 (Table S2), read-out: MIC) of 1.6 µg/mL (≈ 4.74 µM) and an MIC ([2]; clinical strain 29 (Table S2), read-out: MIC) of 0.8 µg/mL (≈ 2.37 µM). It also gave an MIC ([2]; clinical strain 30 (Table S2), read-out: MIC) of 1.6 µg/mL (≈ 4.74 µM), an MIC ([2]; clinical strain 31 (Table S2), read-out: MIC) of 1.6 µg/mL (≈ 4.74 µM) and an MIC ([2]; clinical strain 32 (Table S2), read-out: MIC) of 1.6 µg/mL (≈ 4.74 µM). The MIC ([2]; clinical strain 33 (Table S2), read-out: MIC) was 0.8 µg/mL (≈ 2.37 µM), the MIC ([2]; clinical strain 34 (Table S2), read-out: MIC) was 1.6 µg/mL (≈ 4.74 µM) and the MIC ([2]; clinical strain 35 (Table S2), read-out: MIC) was 1.6 µg/mL (≈ 4.74 µM). It also gave an MIC ([2]; clinical strain 36 (Table S2), read-out: MIC) of 0.8 µg/mL (≈ 2.37 µM), an MIC ([2]; clinical strain 37 (Table S2), read-out: MIC) of 0.8 µg/mL (≈ 2.37 µM) and an MIC ([2]; clinical strain 38 (Table S2), read-out: MIC) of 0.8 µg/mL (≈ 2.37 µM). The MIC ([2]; clinical strain 39 (Table S2), read-out: MIC) was 0.8 µg/mL (≈ 2.37 µM), the MIC ([2]; clinical strain 40 (Table S2), read-out: MIC) was 0.4 µg/mL (≈ 1.19 µM) and the MIC ([2]; clinical strain 41 (Table S2), read-out: MIC) was 0.8 µg/mL (≈ 2.37 µM). The MIC ([2]; clinical strain 42 (Table S2), read-out: MIC) was 1.6 µg/mL (≈ 4.74 µM), the MIC ([2]; clinical strain 43 (Table S2), read-out: MIC) was 0.8 µg/mL (≈ 2.37 µM) and the MIC ([2]; clinical strain 44 (Table S2), read-out: MIC) was 1.6 µg/mL (≈ 4.74 µM). It also gave an MIC ([2]; clinical strain 45 (Table S2), read-out: MIC) of 0.8 µg/mL (≈ 2.37 µM), an MIC ([2]; clinical strain 46 (Table S2), read-out: MIC) of 1.6 µg/mL (≈ 4.74 µM) and an MIC ([2]; clinical strain 47 (Table S2), read-out: MIC) of 0.8 µg/mL (≈ 2.37 µM). It also gave an MIC ([2]; clinical strain 48 (Table S2), read-out: MIC) of 3.12 µg/mL (≈ 9.26 µM), an MIC ([2]; clinical strain 49 (Table S2), read-out: MIC) of 0.2 µg/mL (≈ 0.593 µM) and an MIC ([2]; clinical strain 50 (Table S2), read-out: MIC) of 0.2 µg/mL (≈ 0.593 µM). For the same compound, the MIC ([2]; clinical strain 51 (Table S2), read-out: MIC) was 0.2 µg/mL (≈ 0.593 µM), the MIC ([2]; clinical strain 52 (Table S2), read-out: MIC) was 0.4 µg/mL (≈ 1.19 µM) and the MIC ([2]; clinical strain 53 (Table S2), read-out: MIC) was 0.4 µg/mL (≈ 1.19 µM). The MIC ([2]; clinical strain 54 (Table S2), read-out: MIC) was 0.8 µg/mL (≈ 2.37 µM), the MIC ([2]; clinical strain 55 (Table S2), read-out: MIC) was 0.8 µg/mL (≈ 2.37 µM) and the MIC ([2]; clinical strain 56 (Table S2), read-out: MIC) was 0.8 µg/mL (≈ 2.37 µM). For the same compound, the MIC ([2]; clinical strain 57 (Table S2), read-out: MIC) was 0.8 µg/mL (≈ 2.37 µM), the MIC ([2]; clinical strain 58 (Table S2), read-out: MIC) was 0.8 µg/mL (≈ 2.37 µM) and the MIC ([2]; clinical strain 59 (Table S2), read-out: MIC) was 0.8 µg/mL (≈ 2.37 µM). It also gave an MIC ([2]; clinical strain 60 (Table S2), read-out: MIC) of 0.8 µg/mL (≈ 2.37 µM), an MIC ([2]; clinical strain 61 (Table S2), read-out: MIC) of 0.8 µg/mL (≈ 2.37 µM) and an MIC ([2]; clinical strain 62 (Table S2), read-out: MIC) of 0.8 µg/mL (≈ 2.37 µM). For the same compound, the MIC ([2]; clinical strain 63 (Table S2), read-out: MIC) was 0.8 µg/mL (≈ 2.37 µM), the MIC ([2]; clinical strain 64 (Table S2), read-out: MIC) was 0.8 µg/mL (≈ 2.37 µM) and the MIC ([2]; clinical strain 65 (Table S2), read-out: MIC) was 0.8 µg/mL (≈ 2.37 µM). The MIC ([2]; clinical strain 66 (Table S2), read-out: MIC) was 0.8 µg/mL (≈ 2.37 µM), the MIC ([2]; clinical strain 67 (Table S2), read-out: MIC) was 1.6 µg/mL (≈ 4.74 µM) and the MIC ([2]; clinical strain 68 (Table S2), read-out: MIC) was 1.6 µg/mL (≈ 4.74 µM). For the same compound, the MIC ([2]; clinical strain 69 (Table S2), read-out: MIC) was 1.6 µg/mL (≈ 4.74 µM), the MIC ([2]; clinical strain 70 (Table S2), read-out: MIC) was 1.6 µg/mL (≈ 4.74 µM) and the MIC ([2]; clinical strain 71 (Table S2), read-out: MIC) was 1.6 µg/mL (≈ 4.74 µM). It also gave an MIC ([2]; clinical strain 72 (Table S2), read-out: MIC) of 1.6 µg/mL (≈ 4.74 µM), an MIC ([2]; clinical strain 73 (Table S2), read-out: MIC) of 1.6 µg/mL (≈ 4.74 µM) and an MIC ([2]; clinical strain 74 (Table S2), read-out: MIC) of 1.6 µg/mL (≈ 4.74 µM). For the same compound, the MIC ([2]; clinical strain 75 (Table S2), read-out: MIC) was 1.6 µg/mL (≈ 4.74 µM), the MIC ([2]; clinical strain 76 (Table S2), read-out: MIC) was 1.6 µg/mL (≈ 4.74 µM) and the MIC ([2]; clinical strain 77 (Table S2), read-out: MIC) was 1.6 µg/mL (≈ 4.74 µM). For the same compound, the MIC ([2]; clinical strain 78 (Table S2), read-out: MIC) was 3.12 µg/mL (≈ 9.26 µM), the MIC ([2]; clinical strain 79 (Table S2), read-out: MIC) was 12.5 µg/mL (≈ 37.1 µM) and the MIC ([2]; clinical strain 80 (Table S2), read-out: MIC) was 25 µg/mL (≈ 74.1 µM). It also gave an MIC ([2]; clinical strain 81 (Table S2), read-out: MIC) of 50 µg/mL (≈ 148 µM), an MIC ([2]; mean of MIC values against clinical MDR-SE isolates, read-out: mean MIC) of 2.3 µg/mL (≈ 6.82 µM) and an MIC50 ([2]; 81 clinical strains, concentration inhibiting growth of 50% clinical isolates) of 0.8 µg/mL (≈ 2.37 µM). For the same compound, the MIC90 ([2]; 81 clinical strains, concentration inhibiting growth of 90% of clinical isolates) was 1.6 µg/mL (≈ 4.74 µM).
